Publication PMC6104039 (Nature Communications, 2018)
“And” between values parts separate entries of the source, which are not always exact repeats. Identical values can stand only once.

Tested on: HEK293 cells
Experiment: Endogenous ceramide, HexCer and SM levels in cells treated 24 h, targeted LC-MS/MS
Format: cell-based
Details: HEK293 cells, 24 h
Protocol: Lipids were then extracted using MTBE/methanol/water as described above.
HEK293 cell culture experiment: Levels of each lipid in P053-treated HEK293 cells were normalised to the mean of the vehicle control group, and each concentration was compared to the control using ANOVA with Dunnett’s post-test. P values were adjusted for multiple comparisons in GraphPad PRISM.
Supplementary Figure 1. Ceramide, SM, and HexCer levels in HEK293 cells treated with
P053. Absolute lipid levels were determined by targeted LC-MS/MS, relative to external
standard curves. Results are mean ± SEM (n = 4) from one of two identical experiments.
Statistically significant results, based on two independent experiments, are as indicated in
Figure 2b-d. Raw data for these figures is provided in Supplementary Data File 1.

## C[C@@](N)(CO)CCc1ccc(OCc2ccc(Cl)c(Cl)c2)cc1 [P053, (S)-2-amino-4-(4-(3,4-dichlorobenzyloxy)phenyl)-2-methylbutan-1-ol]
P053 100 nM
  16:0 Cer level: 93.0789 percentage of the vehicle control group and 87.8624 percentage of the vehicle control group and 90.7567 percentage of the vehicle control group and 99.4946 percentage of the vehicle control group and 119.082 percentage of the vehicle control group and 99.8119 percentage of the vehicle control group and 116.788 percentage of the vehicle control group and 98.8463 percentage of the vehicle control group
  16:0 HexCer level: 72.1291 percentage of the vehicle control group and 81.3101 percentage of the vehicle control group and 75.1757 percentage of the vehicle control group and 88.1626 percentage of the vehicle control group and 92.7296 percentage of the vehicle control group and 94.3662 percentage of the vehicle control group and 88.291 percentage of the vehicle control group and 103.879 percentage of the vehicle control group
  16:0 SM level: 96.6683 percentage of the vehicle control group and 97.496 percentage of the vehicle control group and 96.0726 percentage of the vehicle control group and 98.7215 percentage of the vehicle control group and 93.8292 percentage of the vehicle control group and 95.9275 percentage of the vehicle control group and 94.8581 percentage of the vehicle control group and 102.543 percentage of the vehicle control group
  16:1 SM level: 104.314 percentage of the vehicle control group and 87.7756 percentage of the vehicle control group and 92.2071 percentage of the vehicle control group and 111.506 percentage of the vehicle control group and 103.607 percentage of the vehicle control group and 109.147 percentage of the vehicle control group and 99.9145 percentage of the vehicle control group and 113.03 percentage of the vehicle control group
  18:0 Cer level: 51.8361 percentage of the vehicle control group and 34.0436 percentage of the vehicle control group and 43.3209 percentage of the vehicle control group and 47.0876 percentage of the vehicle control group and 49.1716 percentage of the vehicle control group and 60.878 percentage of the vehicle control group and 53.1013 percentage of the vehicle control group and 34.6023 percentage of the vehicle control group
  18:0 HexCer level: 26.076 percentage of the vehicle control group and 45.6733 percentage of the vehicle control group and 33.7976 percentage of the vehicle control group and 35.7543 percentage of the vehicle control group and 29.3831 percentage of the vehicle control group and 38.4787 percentage of the vehicle control group and 45.094 percentage of the vehicle control group and 48.7 percentage of the vehicle control group
  18:0 SM level: 58.3863 percentage of the vehicle control group and 60.4391 percentage of the vehicle control group and 60.0968 percentage of the vehicle control group and 58.0444 percentage of the vehicle control group and 61.8417 percentage of the vehicle control group and 67.9073 percentage of the vehicle control group and 68.1366 percentage of the vehicle control group and 74.9383 percentage of the vehicle control group
  18:1 SM level: 67.1121 percentage of the vehicle control group and 61.0781 percentage of the vehicle control group and 66.2487 percentage of the vehicle control group and 67.0185 percentage of the vehicle control group and 69.283 percentage of the vehicle control group and 68.5826 percentage of the vehicle control group and 71.1925 percentage of the vehicle control group
  20:0 Cer level: 85.7665 percentage of the vehicle control group and 109.856 percentage of the vehicle control group and 101.721 percentage of the vehicle control group and 86.1177 percentage of the vehicle control group and 103.673 percentage of the vehicle control group and 96.5034 percentage of the vehicle control group and 78.6868 percentage of the vehicle control group
  22:0 Cer level: 109.852 percentage of the vehicle control group and 94.2148 percentage of the vehicle control group and 84.7703 percentage of the vehicle control group and 98.1236 percentage of the vehicle control group and 119.57 percentage of the vehicle control group and 118.497 percentage of the vehicle control group and 136.979 percentage of the vehicle control group and 110.794 percentage of the vehicle control group
  22:0 HexCer level: 96.8671 percentage of the vehicle control group and 87.3308 percentage of the vehicle control group and 81.4727 percentage of the vehicle control group and 94.5887 percentage of the vehicle control group and 107.975 percentage of the vehicle control group and 124.49 percentage of the vehicle control group and 104.798 percentage of the vehicle control group and 129.338 percentage of the vehicle control group
  22:0 SM level: 88.1464 percentage of the vehicle control group and 112.339 percentage of the vehicle control group and 83.7907 percentage of the vehicle control group and 79.4494 percentage of the vehicle control group and 115.966 percentage of the vehicle control group and 112.687 percentage of the vehicle control group and 121.861 percentage of the vehicle control group and 131.998 percentage of the vehicle control group
  22:1 SM level: 110.7 percentage of the vehicle control group and 102.614 percentage of the vehicle control group and 109.89 percentage of the vehicle control group and 108.27 percentage of the vehicle control group and 108.462 percentage of the vehicle control group and 113.237 percentage of the vehicle control group and 107.396 percentage of the vehicle control group and 108.45 percentage of the vehicle control group
  24:0 HexCer level: 91.3427 percentage of the vehicle control group and 87.2698 percentage of the vehicle control group and 81.8027 percentage of the vehicle control group and 92.8624 percentage of the vehicle control group and 100.187 percentage of the vehicle control group and 107.186 percentage of the vehicle control group and 106.263 percentage of the vehicle control group and 116.702 percentage of the vehicle control group
  24:0 SM level: 117 percentage of the vehicle control group and 90.9141 percentage of the vehicle control group and 93.8706 percentage of the vehicle control group and 115.93 percentage of the vehicle control group and 114.197 percentage of the vehicle control group and 134.57 percentage of the vehicle control group and 140.981 percentage of the vehicle control group
  24:1 Cer level: 110.817 percentage of the vehicle control group and 85.3956 percentage of the vehicle control group and 97.052 percentage of the vehicle control group and 96.6841 percentage of the vehicle control group and 128.871 percentage of the vehicle control group and 121.829 percentage of the vehicle control group and 142.778 percentage of the vehicle control group and 120.748 percentage of the vehicle control group
  24:1 HexCer level: 91.7407 percentage of the vehicle control group and 95.5309 percentage of the vehicle control group and 96.8003 percentage of the vehicle control group and 101.48 percentage of the vehicle control group and 104.186 percentage of the vehicle control group and 105.129 percentage of the vehicle control group and 100.754 percentage of the vehicle control group and 113.013 percentage of the vehicle control group
  24:1 SM level: 111.218 percentage of the vehicle control group and 94.5875 percentage of the vehicle control group and 99.337 percentage of the vehicle control group and 100.942 percentage of the vehicle control group and 110.843 percentage of the vehicle control group and 105.998 percentage of the vehicle control group and 112.241 percentage of the vehicle control group and 112.423 percentage of the vehicle control group
P053 300 nM
  14:0 SM level: 100.258 percentage of the vehicle control group and 95.2604 percentage of the vehicle control group and 95.8152 percentage of the vehicle control group and 99.1466 percentage of the vehicle control group and 109.96 percentage of the vehicle control group and 116.62 percentage of the vehicle control group and 129.695 percentage of the vehicle control group
  16:0 Cer level: 91.1433 percentage of the vehicle control group and 77.1433 percentage of the vehicle control group and 90.5634 percentage of the vehicle control group and 83.6347 percentage of the vehicle control group and 92.4764 percentage of the vehicle control group and 98.9865 percentage of the vehicle control group and 90.2518 percentage of the vehicle control group
  16:0 HexCer level: 76.4857 percentage of the vehicle control group and 73.433 percentage of the vehicle control group and 81.5302 percentage of the vehicle control group and 81.9705 percentage of the vehicle control group and 86.9585 percentage of the vehicle control group and 88.1949 percentage of the vehicle control group and 93.4284 percentage of the vehicle control group
